We go through one compound from ChEMBL document CHEMBL4800730 (2021).

The structures appear in SMILES notation.

In one assay the test system is ZR-75-1. The assay is described as follows: CellTiter-Glo luminescent cell viability assay (CTG) with ZR-75-1 cells. In kind it is functional, cell-based. The following applies: Homo sapiens.
Assay [1] deals with RAC-alpha serine/threonine-protein kinase (Homo sapiens, UniProt P31749). The assay is described as follows: Homogeneous Time Resolved Fluorescence (HTRF) assay (AKT1).
Chain of RAC-alpha serine/threonine-protein kinase (P31749 whole entry): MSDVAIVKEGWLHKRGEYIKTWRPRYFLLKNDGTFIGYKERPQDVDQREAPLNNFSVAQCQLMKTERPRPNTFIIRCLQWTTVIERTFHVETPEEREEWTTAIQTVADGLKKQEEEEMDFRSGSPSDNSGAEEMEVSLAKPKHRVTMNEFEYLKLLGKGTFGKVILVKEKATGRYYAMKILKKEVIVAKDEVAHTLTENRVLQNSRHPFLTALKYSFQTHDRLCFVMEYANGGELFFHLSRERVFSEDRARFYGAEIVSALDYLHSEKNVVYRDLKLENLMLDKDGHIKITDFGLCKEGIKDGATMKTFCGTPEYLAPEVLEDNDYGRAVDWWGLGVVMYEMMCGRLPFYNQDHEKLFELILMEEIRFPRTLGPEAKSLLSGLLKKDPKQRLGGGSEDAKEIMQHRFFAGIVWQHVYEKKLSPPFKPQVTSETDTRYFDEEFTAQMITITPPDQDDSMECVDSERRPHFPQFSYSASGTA
A short description of assay [2]: NanoBRET assay (AKT2). The following applies: Homo sapiens.
Assay [3] in a line: NanoBRET assay (AKT1). The conditions noted are these: Homo sapiens.
The test system of a further assay is AN3-CA. The assay is described as follows: CellTiter-Glo luminescent cell viability assay (CTG) with AN3-CA cells. In kind it is functional, cell-based. The following applies: Homo sapiens.
The nature of assay [4]: NanoBRET assay (AKT3). The following applies: Homo sapiens.

`C=CC(=O)Nc1ccc2[nH]c(=O)n(C3CCN(Cc4ccc(-c5ccc6c(c5)NC(=O)CO6)cc4)CC3)c2c1` [RL2578]: the EC50 is on record as 4.2 µM (not active) with ZR-75-1; 4.8 µM (not active) in assay [2]; 3.5 µM (not active) in assay [3]; 18 µM (not active) in the assay on AN3-CA; 9.3 µM (not active) in assay [4]. In addition, the IC50 in assay [1] is given as 9.2 µM (not active); in assay [2], 8.3 µM (not active); in assay [3] it was 1.9 µM (not active); in assay [4], 18 µM (not active).
